Measured values taken from paper PMC2000878, “Module structure of interphotoreceptor retinoid-binding protein (IRBP) may provide bases for its complex role in the visual cycle – structure/function study of Xenopus IRBP” (BMC Biochemistry, 2007).
Read-outs that look alike come from different tables or passages of the source.

Assays:
Experiment in all cases: Competitive fluorescence titration of all-trans retinol with 11-cis retinaldehyde
Type in all cases: binding
Xenopus IRBP Module 2 = target: T1, Xenopus IRBP Module 2 (Xenopus laevis, UniProt Q7SZI7)
T1 construct: cDNAs corresponding to the full-length IRBP, module 1, and module 2 were expressed in pThioHis; modules 3 and 4 were expressed in pTrxFus; made in house; host or cells: E. coli Top10 (pThioHis)
T1 sequence (Q7SZI7 319-617 limits assumed): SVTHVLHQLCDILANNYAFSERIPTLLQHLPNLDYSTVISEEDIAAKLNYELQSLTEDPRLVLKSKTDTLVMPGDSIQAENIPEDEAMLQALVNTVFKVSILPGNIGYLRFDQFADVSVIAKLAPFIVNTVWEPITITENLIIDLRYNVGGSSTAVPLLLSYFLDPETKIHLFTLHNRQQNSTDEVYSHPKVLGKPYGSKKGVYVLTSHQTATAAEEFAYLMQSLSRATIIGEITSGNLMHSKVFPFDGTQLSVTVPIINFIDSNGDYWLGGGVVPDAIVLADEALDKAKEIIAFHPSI
Description: (§1) Figure 9 Competitive inhibition by 11-cis retinaldehyde of all-trans retinol binding to the individual modules of Xenopus IRBP. Binding of all-trans retinol to the individual modules was measured by fluorescence enhancement in the presence of varying amounts of 11-cis retinal. Panels A through D correspond to modules 1 through 4 respectively. […] Three dimensional nonlinear regression was used to determine the number of binding sites, the dissociation constant of all-trans retinol, and the dissociation constant of 11-cis retinal for each of the individual modules. The concentrations of the proteins used in the titrations were as follows: module 1 (0.99 μM; panel A); module 2 (1.10 μM; panel B); module 3 (1.10 μM; panel C); module 4 (1.00 μM; panel D).
(§2) To describe the displacement of all-trans retinol by 11-cis retinaldehyde, Equation 1 was modified to take into account the competition between the two ligands. The apparent dissociation constants for all-trans retinol measured under these conditions is related to the dissociation constant of 11-cis retinaldehyde through the following expression.
(§3) Kapp=Kdall−trans[1+Rt11−cis/Kd11−cis] MathType@MTEF@5@5@+=feaafiart1ev1aaatCvAUfKttLearuWrP9MDH5MBPbIqV92AaeXatLxBI9gBaebbnrfifHhDYfgasaacH8akY=wiFfYdH8Gipec8Eeeu0xXdbba9frFj0=OqFfea0dXdd9vqai=hGuQ8kuc9pgc9s8qqaq=dirpe0xb9q8qiLsFr0=vr0=vr0dc8meaabaqaciaacaGaaeqabaqabeGadaaakeaacqWGlbWsdaWgaaWcbaGaemyyaeMaemiCaaNaemiCaahabeaakiabg2da9iabdUealnaaDaaaleaacqWGKbazaeaacqWGHbqycqWGSbaBcqWGSbaBcqGHsislcqWG0baDcqWGYbGCcqWGHbqycqWGUbGBcqWGZbWCaaGcdaWadaqaaiabigdaXiabgUcaRmaalaaabaGaemOuai1aa0baaSqaaiabdsha0bqaaiabigdaXiabigdaXiabgkHiTiabdogaJjabdMgaPjabdohaZbaaaOqaaiabdUealnaaDaaaleaacqWGKbazaeaacqaIXaqmcqaIXaqmcqGHsislcqWGJbWycqWGPbqAcqWGZbWCaaaaaaGccaGLBbGaayzxaaaaaa@58DE@
(§4) The origin of the above expression is discussed in reviews dealing with competition assays. Substitution of equation 2 into equation 1 yields the following expression.
(§5) Fenh=C1+C2[Rtall−trans−(Rtall−trans+NPt+Kdall−trans+Kdall−transRt11−cis/Kd11−cis)^2−4NPtRtall−trans] MathType@MTEF@5@5@+=feaafiart1ev1aaatCvAUfKttLearuWrP9MDH5MBPbIqV92AaeXatLxBI9gBaebbnrfifHhDYfgasaacH8akY=wiFfYdH8Gipec8Eeeu0xXdbba9frFj0=OqFfea0dXdd9vqai=hGuQ8kuc9pgc9s8qqaq=dirpe0xb9q8qiLsFr0=vr0=vr0dc8meaabaqaciaacaGaaeqabaqabeGadaaakeaacqWGgbGrdaWgaaWcbaGaemyzauMaemOBa4MaemiAaGgabeaakiabg2da9iabdoeadnaaBaaaleaacqaIXaqmaeqaaOGaey4kaSIaem4qam0aaSbaaSqaaiabikdaYaqabaGcdaWadaqaaiabdkfasnaaDaaaleaacqWG0baDaeaacqWGHbqycqWGSbaBcqWGSbaBcqGHsislcqWG0baDcqWGYbGCcqWGHbqycqWGUbGBcqWGZbWCaaGccqGHsisldaGcaaqaamaabmaabaGaemOuai1aa0baaSqaaiabdsha0bqaaiabdggaHjabdYgaSjabdYgaSjabgkHiTiabdsha0jabdkhaYjabdggaHjabd6gaUjabdohaZbaakiabgUcaRiabd6eaojabdcfaqnaaBaaaleaacqWG0baDaeqaaOGaey4kaSIaem4saS0aa0baaSqaaiabdsgaKbqaaiabdggaHjabdYgaSjabdYgaSjabgkHiTiabdsha0jabdkhaYjabdggaHjabd6gaUjabdohaZbaakiabgUcaRmaalaaabaGaem4saS0aa0baaSqaaiabdsgaKbqaaiabdggaHjabdYgaSjabdYgaSjabgkHiTiabdsha0jabdkhaYjabdggaHjabd6gaUjabdohaZbaakiabdkfasnaaDaaaleaacqWG0baDaeaacqaIXaqmcqaIXaqmcqGHsislcqWGJbWycqWGPbqAcqWGZbWCaaaakeaacqWGlbWsdaqhaaWcbaGaemizaqgabaGaeGymaeJaeGymaeJaeyOeI0Iaem4yamMaemyAaKMaem4CamhaaaaaaOGaayjkaiaawMcaamaaCaaaleqabaGaeGOmaidaaOGaeyOeI0IaeGinaqJaemOta4Kaemiuaa1aaSbaaSqaaiabdsha0bqabaGccqWGsbGudaqhaaWcbaGaemiDaqhabaGaemyyaeMaemiBaWMaemiBaWMaeyOeI0IaemiDaqNaemOCaiNaemyyaeMaemOBa4Maem4CamhaaaqabaaakiaawUfacaGLDbaaaaa@A768@

Xenopus IRBP Module 3 = target: T2, Xenopus IRBP Module 3 (Xenopus laevis, UniProt Q7SZI7); settings: protein 1.10 μM
T2 construct: cDNAs corresponding to the full-length IRBP, module 1, and module 2 were expressed in pThioHis; modules 3 and 4 were expressed in pTrxFus; made in house; host or cells: E. coli GI724 / GI698 (pTrxFus)
Description: as §1, §2, §3, §4, §5

Xenopus IRBP Module 1 = Xenopus IRBP Module 1 (Xenopus laevis, UniProt Q7SZI7); settings: protein 0.99 μM
Description: as §1, §2, §3, §4, §5

Xenopus IRBP Module 4 = target: T3, Xenopus IRBP Module 4 (Xenopus laevis, UniProt Q7SZI7); settings: protein 1.00 μM
T3 construct: cDNAs corresponding to the full-length IRBP, module 1, and module 2 were expressed in pThioHis; modules 3 and 4 were expressed in pTrxFus; made in house; host or cells: E. coli GI724 / GI698 (pTrxFus)
Description: as §1, §2, §3, §4, §5

full-length Xenopus IRBP = target: T4, full-length Xenopus IRBP (Xenopus laevis, UniProt Q7SZI7)
T4 construct: We expressed the full-length IRBP as well as its individual modules as thioredoxin-fusion proteins using pTrxFus and pThioHis vectors; made in house; host or cells: E. coli Top10 (pThioHis)
From the text: In Figure 8B, full-length Xenopus IRBP was titrated with all-trans retinol in the presence of different fixed concentrations of 11-cis retinaldehyde. Binding of all-trans retinol to Xenopus IRBP was followed by monitoring the enhancement of its fluorescence. […] Equation 3 (see methods) was used to analyze the data generating the 3-dimensional representation of the fit shown graphically in Figure 8B.
as §2, §3, §4
Fenh=C1+C2[Rtall−trans−(Rtall−trans+NPt+Kdall−trans+Kdall−transRt11−cis/Kd11−cis)^2−4NPtRtall−trans] […]

[1] = competition with all-trans retinol, read-out: Kd 11-cis retinal
[2] = competition, in presence of 11-cis retinal, read-out: Kd All-trans retinol

Sequence of Xenopus IRBP Module 1 (Q7SZI7 23-318): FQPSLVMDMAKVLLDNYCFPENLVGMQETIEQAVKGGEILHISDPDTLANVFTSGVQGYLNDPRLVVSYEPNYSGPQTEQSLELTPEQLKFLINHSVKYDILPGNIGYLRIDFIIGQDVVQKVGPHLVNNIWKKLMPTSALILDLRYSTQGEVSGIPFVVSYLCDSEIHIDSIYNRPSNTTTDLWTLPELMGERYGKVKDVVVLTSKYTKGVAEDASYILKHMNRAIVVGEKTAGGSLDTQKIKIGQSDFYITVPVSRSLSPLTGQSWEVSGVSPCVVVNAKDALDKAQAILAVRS
T3 sequence (Q7SZI7 923-1219): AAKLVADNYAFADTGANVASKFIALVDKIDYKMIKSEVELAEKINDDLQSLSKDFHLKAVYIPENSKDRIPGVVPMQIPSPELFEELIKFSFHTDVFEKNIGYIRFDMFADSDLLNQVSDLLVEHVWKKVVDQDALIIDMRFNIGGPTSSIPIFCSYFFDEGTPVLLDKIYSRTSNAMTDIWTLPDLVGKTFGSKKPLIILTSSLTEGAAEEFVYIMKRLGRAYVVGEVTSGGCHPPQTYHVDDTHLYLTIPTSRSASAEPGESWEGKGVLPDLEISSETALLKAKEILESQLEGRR
T2 sequence (Q7SZI7 616-912): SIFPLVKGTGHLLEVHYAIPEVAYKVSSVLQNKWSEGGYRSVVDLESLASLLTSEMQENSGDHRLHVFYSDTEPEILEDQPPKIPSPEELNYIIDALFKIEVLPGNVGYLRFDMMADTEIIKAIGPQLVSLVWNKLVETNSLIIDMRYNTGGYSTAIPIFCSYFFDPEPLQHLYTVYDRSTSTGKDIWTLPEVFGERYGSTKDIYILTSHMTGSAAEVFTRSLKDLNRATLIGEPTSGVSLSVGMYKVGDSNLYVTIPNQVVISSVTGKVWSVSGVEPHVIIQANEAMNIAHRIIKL
T4 sequence (Q7SZI7 23-1219): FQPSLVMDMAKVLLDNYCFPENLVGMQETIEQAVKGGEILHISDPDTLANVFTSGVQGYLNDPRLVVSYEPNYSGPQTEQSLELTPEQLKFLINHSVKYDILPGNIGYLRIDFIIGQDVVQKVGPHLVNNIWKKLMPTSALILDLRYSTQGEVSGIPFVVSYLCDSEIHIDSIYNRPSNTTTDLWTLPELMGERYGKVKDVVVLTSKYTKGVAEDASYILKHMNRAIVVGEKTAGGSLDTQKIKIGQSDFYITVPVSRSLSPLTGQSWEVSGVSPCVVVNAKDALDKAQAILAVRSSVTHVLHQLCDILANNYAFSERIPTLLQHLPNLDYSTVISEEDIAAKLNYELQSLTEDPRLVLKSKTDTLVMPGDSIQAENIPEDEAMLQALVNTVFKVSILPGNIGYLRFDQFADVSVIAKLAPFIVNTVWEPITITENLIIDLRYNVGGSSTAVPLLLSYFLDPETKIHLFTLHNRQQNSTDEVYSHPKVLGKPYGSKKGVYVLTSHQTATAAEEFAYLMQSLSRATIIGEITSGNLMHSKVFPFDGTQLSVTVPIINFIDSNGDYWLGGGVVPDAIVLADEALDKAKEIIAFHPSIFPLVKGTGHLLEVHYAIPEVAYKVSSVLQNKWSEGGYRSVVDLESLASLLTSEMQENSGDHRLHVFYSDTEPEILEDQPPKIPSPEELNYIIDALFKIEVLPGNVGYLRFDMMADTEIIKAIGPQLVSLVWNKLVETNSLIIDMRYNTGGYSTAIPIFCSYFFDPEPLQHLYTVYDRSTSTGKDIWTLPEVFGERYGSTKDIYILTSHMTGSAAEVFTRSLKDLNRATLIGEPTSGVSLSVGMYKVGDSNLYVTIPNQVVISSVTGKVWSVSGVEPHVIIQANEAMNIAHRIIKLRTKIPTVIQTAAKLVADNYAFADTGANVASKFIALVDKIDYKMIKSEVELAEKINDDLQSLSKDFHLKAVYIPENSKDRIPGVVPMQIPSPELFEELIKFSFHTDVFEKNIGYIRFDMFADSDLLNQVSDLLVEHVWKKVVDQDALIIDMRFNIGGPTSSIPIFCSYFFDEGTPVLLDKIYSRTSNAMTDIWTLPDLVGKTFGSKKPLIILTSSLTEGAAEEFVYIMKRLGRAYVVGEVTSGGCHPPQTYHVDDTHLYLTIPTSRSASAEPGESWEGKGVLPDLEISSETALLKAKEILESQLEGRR

Kd (Xenopus IRBP Module 2; competition with all-trans retinol, protein 1.10 μM, read-out: Kd 11-cis retinal) [nM] | Binding sites (N) (Xenopus IRBP Module 2; competition, shared sites, protein 1.10 μM) | Kd (Xenopus IRBP Module 3; [1]) [nM] | Binding sites (N) (Xenopus IRBP Module 3; competition, shared sites) | Kd (Xenopus IRBP Module 1; [1]) [nM] | Binding sites (N) (Xenopus IRBP Module 1; competition, shared sites) | Kd (Xenopus IRBP Module 4; [1]) [nM] | Binding sites (N) (Xenopus IRBP Module 4; competition, shared sites) | Kd (full-length Xenopus IRBP; [1]) [nM] | Binding sites (N) (full-length Xenopus IRBP; competition, sites assumed shared by all-trans retinol and 11-cis retinal) | Kd (Xenopus IRBP Module 2; competition, in presence of 11-cis retinal, protein 1.10 μM, read-out: Kd All-trans retinol) [nM] | Kd (Xenopus IRBP Module 3; [2]) [nM] | Kd (Xenopus IRBP Module 1; [2]) [nM] | Kd (Xenopus IRBP Module 4; [2]) [nM] | Kd (full-length Xenopus IRBP; competition, in presence of fixed concentrations of 11-cis retinaldehyde, read-out: Kd All-trans retinol) [nM] | SMILES | Ligand selectivity of module 2 (Xenopus IRBP Module 2; comparison of Kd for all-trans retinol and 11-cis retinaldehyde)
280 ± 130 | 1.22 ± 0.10 | 560 ± 110 | 1.90 ± 0.28 | 570 ± 110 | 1.29 ± 0.24 | 290 ± 50 | 1.47 ± 0.18 | 210 ± 100 | 3.53 ± 0.19 | – | – | – | – | – | CC1=C(/C=C/C(C)=C/C=C/C(C)=C/C=O)C(C)(C)CCC1 [11-cis retinal] | –
– | – | – | – | – | – | – | – | – | – | 74 ± 37 | 840 ± 220 | 670 ± 170 | 410 ± 90 | 220 ± 130 | CC1=C(/C=C/C(C)=C/C=C/C(C)=C/CO)C(C)(C)CCC1 [all-trans retinol] | selectivity for all-trans retinol over 11-cis retinaldehyde
